A short description of data set [1]: Particle size and morphology of drug particles from antisolvent sonocrystallization (optical microscope, SEM, dynamic light scattering). Format: physicochemical. An excerpt: The application of ultrasound to the induction of nucleation of drug crystals is presented in the following examples. The apparatus shown in FIG. 1 was employed for all of the experiments, using a titanium-aluminum alloy flow-through ultrasonic horn (Sonics & Materials VCX750) having a resonance frequency of 20 kHz, a 1 cm^2 tip and an outlet diameter of 4 mm. Horn intensities were calibrated by calorimetry with water. A crystallization tube having an outer diameter (OD) of 13 mm was used in each experiment. Each has different solubility characteristics and consequently its own solvent/antisolvent system. Fine particles of several drug materials, including aspirin (acetylsalicylic acid), acetaminophen (also called paracetamol, the active ingredient in Tylenol), and folic acid (vitamin B9), were prepared by antisolvent sonocrystallization.
Particles were imaged using a Canon PC1015 digital camera attached to a Zeiss Axioskop optical/fluorescence microscope with polarization analyzer or with a Hitachi 4700 SEM. Particle size distributions were measured by dynamic light scattering when possible.

The nature of data set [2]: Solubility of the drug in solvent / antisolvent. Format: physicochemical. From the text: The solute employed in the process may be any material for which a suitable solvent and antisolvent may be found. The suitability of a solvent/antisolvent system may be evaluated by comparing the solubility of the solute in the solvent with the solubility of the solute in the antisolvent. For example, the solute may have a first solubility in the solvent and a second solubility in the antisolvent, where a ratio of the first solubility to the second solubility is at least about 10:1, or at least about 100:1. A higher ratio may permit a higher particle yield to be achieved for a given concentration of solute in the solvent. Accordingly, the ratio may also be at least about 200:1 or at least about 400:1, but is typically no higher than about 800:1. As would be recognized by one of ordinary skill in the art, the solubility of solute in a given solvent may be represented in terms of milligrams of solute per milliliter of the solvent (mg/mL), and may be determined by HPLC or gravimetric analysis.

On to `CC(=O)Nc1ccc(O)cc1` [acetaminophen], for which the Resultant particle morphology result in data set [1] (antisolvent sonocrystallization, 20 kHz, 15 W, solvent/antisolvent per experiment (Tables 1, 2)) was “platelike”. For the same compound, the “crystal length in the largest dimension” value in data set [1] (ethanol solution, hexanes as antisolvent, FIGS. 6A and 6B) is given as “a few”.
In the case of `CC(=O)Oc1ccccc1C(=O)O` [aspirin, acetylsalicylic acid], the “concentration of saturated ethanol solution” value in data set [2] (ethanol) is recorded as “about 400 mg/mL”.
Take `Nc1nc2ncc(CNc3ccc(C(=O)N[C@@H](CCC(=O)O)C(=O)O)cc3)nc2c(=O)[nH]1` [Folic acid, folic acid]: in data set [2] (acetone), the solubility in acetone result was “negligible”. Further, the solubility in base entry in data set [2] (base (as the folate ion)) was “dissolves readily”. Besides, the solubility in water entry in data set [2] (neutral to moderately acidic water) is reported as “very nearly insoluble”; in data set [2] (very low pH) it was “quite soluble”. In addition, the crystal diameter entry in data set [1] (20% aqueous ammonium hydroxide solvent, acetone antisolvent, by SEM (FIGS. 8A-8B)) is reported as “about 100 nm”. In data set [1] (saturated sodium bicarbonate solution, H2SO4 antisolvent, FIGS. 7C-7D), the “particle morphology (optical microscope)” value is “large needles”. For the same compound, the “particle size (optical microscope)” value in data set [1] (saturated sodium bicarbonate solution, HCl antisolvent, FIGS. 7A-7B) is on record as “too small to resolve optically”.

Values taken from patent publication US9855538B2, “Ultrasonic method and apparatus for producing particles having a controlled size distribution” (The Board of Trustees of the University of Illinois, priority 2013, dated 2018).
